Measurements reported in PMC7734798 (ACS Medicinal Chemistry Letters, 2020).

How the values were obtained:
[1] = Brain stability / hydrolysis kinetics in rat brain homogenate (LC-DAD-MS/MS); assay type: in vitro ADME; conditions: 37 °C; for hydrolysis in rat brain homogenate in presence of FAAH inhibitor PF-3845: 5 μM PF-3845; for time to total disappearance of starting compound in rat brain homogenate / half-life at 1 µg/mL: absence of FAAH inhibitor; for half-life at 1 µg/mL: rat, brain homogenate
Description: We anticipated that, once they entered into the brain, conjugates would be hydrolyzed to the individual components by intracellular metabolic enzymes processing fatty acid derivatives (e.g., FAAH).[9],[17] Thus, the stability of 1 and 2 was evaluated by LC-DAD-MS/MS analysis of rat brain homogenate incubated with the conjugates, which was sampled at regular intervals over 1 h. To obtain initial clues on the implication of FAAH enzymes in hydrolysis, the assays were performed in the absence and presence of 5 μM FAAH inhibitor PF-3845.[9]
Velp (Usmate, Italy) RX3 vortex mixer and an Elma (Singen, Germany) Sonic T310 Trans ultrasonic […]
Chromatographic runs were obtained on an Agilent (Palo Alto, Ca, US) ZORBAX SB-C18 column (50 × 2.1 mm I.D., 3.5 µm particles), maintained at room temperature and equipped with a guard column. The mobile phase was a mixture of 0.1% aqueous formic acid (A) and acetonitrile (B), flowing at a constant rate of 0.3 mL/min. The mobile phase was set in isocratic mode with A:B ratio of (65:35, V:V); the two components of the mobile phase were filtered through Sartorius (Göttingen, Germany) membrane filters (47 mm diameter, polyamide, 0.2 µm pore size) and degassed by an ultrasonic bath. The injection volume was 10 μL. For compound purity, Total Ion Current (TIC) mode was used and DAD chromatograms were checked at 200 nm and 540 nm. For compound stability and hydrolysis studies, multiple reaction monitoring (MRM) acquisition mode was set up for both compounds 1 and 2, by flow-injection analysis directly in the MS source, in order to optimize ionization parameters and to select two exclusive MRM m/z transitions for each analyte, exploited for quantitative purposes and for qualitative confirmation, respectively.
Sample analysis and method validation […]
For compound stability and hydrolysis studies, after setting up MRM acquisition mode for both 1 and 2 as described previously, the LC-MS/MS method was coupled to an optimized sample preparation protocol to be applied to biological matrices, namely rat plasma and rat brain homogenate. Briefly, for both matrices, 1-mL sample was brought to 37±0.5°C by means of a thermostatted water bath.
Then, 50µL of analyte working solution was added to the matrix sample in order to obtain a final […]
concentration of 1 µg/mL. […]
plasma) and hydrolysis (in brain homogenate). Then, at regular intervals (5, 10, 15, 20, 25, 30, 45, 60 min) a 50-µL aliquot was sampled from the vial, added with 50 µL of ice-cold ACN and centrifuged for 5 min at 4500 rpm at 5°C. The resulting supernatant was subjected to an original miniaturized extraction procedure, based on microextraction by packed sorbent (MEPS), in order to purify the samples from potential interfering signals deriving from the matrices. The solution obtained after MEPS procedure was directly injected into the LC-MS/MS system under the optimized conditions previously described. Compound quantitation was obtained by integrating peak areas obtained from sample analysis and by interpolation on the linearity curve of each analyte. All analyses were carried out in triplicate and results were then expressed as % of remaining compound with respect to that assessed at t0 (100%), plotted against the defined time points.
In order to be applied for stability and hydrolysis studies, the MEPS-LC-MS/MS method was fully validated on both plasma and brain homogenate samples fortified with known amounts of compounds 1 and 2, pretreated and analyzed right after the addition of analyte working solutions. Method validation was performed according to the main international guidelines [ICH Harmonised Tripartite Guideline. Validation of Analytical Procedures: Text and Methodology Q2(R1); International Conference on Harmonisation of Technical] in terms of linearity (including limit of detection, LOD and limit of quantitation, LOQ), precision, accuracy, extraction yield and matrix effect.

Oli-Neu cells = test: Oli-Neu cell proliferation and differentiation assay: cell counting and measure of filaments; assay type: cell-based, mouse; conditions: 5 μM, 48 h
From the text: OPC proliferation and migration to the CNS injury site as well as their differentiation are critical steps toward remyelination in MS. HDAC activity plays a crucial role in OPC proliferation/differentiation; therefore, HDAC modulation is widely considered a promising therapeutic target for MS.[30] […] Therefore, we tested the effect of our compounds on OPC proliferation and differentiation, through cell counting, measure of filaments, and analysis of proliferation/differentiation markers (Figure 7).
Oli-Neu cells were grown in SATO medium (DMEM medium, 2 mM glutamine, 10 μg/ml insulin, 5.5 μg/ml transferrin, 38.72 nM sodium selenite, 100 µM putrescine, 520 nM L-thyroxine (T4), 500 nM triiodo-L-thyronine (T3), 200 nM progesterone, 25 μg/ml of gentamycin) supplemented with 1% heat-inactivated horse serum (HS) in a humidified, 5% CO2 incubator at 37°C. Cell culture medium and all chemicals were from Sigma-Aldrich, except for insulin-transferrin-sodium selenite 100X supplement (Life Technologies Corporation). Cells were plated on 96 well plates, previously coated with 10 μg/mL poly-L-lysine (Sigma-Aldrich; 10 μg/ml) at the density of 2.5 x 10 4/0.2 mL medium/well and treated with increasing concentrations of the compounds (0.5, 1, 5 and 10 μM). […]
Oli-Neu cells proliferation and differentiation assay
48 hours, for cell counting and measure of filaments, 5 random images for each condition were acquired with an Eclipse TS100 (Nikon) microscope using a 10X objective. Cells number and filament length were measured with Fiji ImageJ2 software. […]

SMILES | hydrolysis in rat brain homogenate in presence of FAAH inhibitor PF-3845 [1] | time to total disappearance of starting compound in rat brain homogenate [1] | half-life at 1 µg/mL [1] | Oli-Neu cell number (Oli-Neu cells) | Oli-Neu filament length (Oli-Neu cells)
CC/C=C\C/C=C\C/C=C\CCCCCCCC(=O)NCCNC(=O)C(CCC)CCC [compound 1] | blocks the hydrolysis of both 1 and 2 to a large extent | ≤ 1 h | ~23 min | decrease cell number | parallel increase in filament length
CC/C=C\C/C=C\C/C=C\CCCCCCCC(=O)NCCOC(=O)C(CCC)CCC [compound 2] | blocks the hydrolysis of both 1 and 2 to a large extent | ≤ 1 h | ~16 min | decrease cell number | parallel increase in filament length
